Values of other authors, collected in patent publication EP1988398B1, “Immunoassay for tramadol and its major metabolites” (Randox Laboratories Ltd., priority 2007, dated 2008).
Where a name gives a salt, the structure may show the parent alone.

[1] = oral administration of a single 100 mg dose

SMILES | abundance of N-demethyltramadol relative to O-demethyltramadol (normal tramadol dosage levels) | plasma concentration of tramadol peaks [1] | time of peak plasma concentration [1] | Urinary excretion of the dose as metabolites (oral, single 100 mg dose) | Urinary excretion of the dose as the unchanged drug (oral, single 100 mg dose)
CNC[C@@H]1CCCC[C@@]1(O)c1cccc(OC)c1 (racemic) [N-demethyltramadol, (±)-cis-2-[(methylamino)methyl]-1-(3-methoxyphenyl)cyclohexanol] | 1.5-3 times | – | – | – | –
COc1cccc(C2(O)CCCCC2CN(C)C)c1 (racemic) [Tramadol, (±)-cis-2-[(dimethylamino)methyl]-1-(3-methoxyphenyl)cyclohexanol hydrochloride] | – | approximately 600 ng/ml | 2 to 3 h | 60% | 30%
